Data: patent publication US9161944B2, “Method for preventing cancer metastasis” (INSERM (INSTITUT NATIONAL DE LA SANTE ET DE LA SANTE ET DE …, priority 2010, dated 2015)
Read-outs that look alike come from different tables or passages of the source. One block for each molecule: values may come before it.

Columns and labels:
[1] = Cytotoxicity / cell viability (MTT, tetrazolium salt reduction); settings: human
MDA-MB-435s [2] = assay: as above
PAF receptor [3] = target: T1, PAF receptor (Homo sapiens, UniProt P25105); assay: 3H-C16-PAF binding, membrane homogenates of CHO cells; set-up: expressed in transfected cells; host or cells: CHO cells (membrane homogenates); settings: 0.3 and 2 μM, FIG. 11A
Experimental: (§1) FIG. 11: Effects of JPH1701 on PAF receptor, PLC and PKCs activities. FIG. 11A) Histogram showing the percentage of control specific binding of 3H-C16-PAF to recombinant PAF receptor obtained from membrane homogenates of CHO cells by 0.3 and 2 μM edelfosine and by 0.3 and 2 μM JPH1701. FIG. 11B) Histogram showing the percentage of control agonist response (% effect i.e: increase of intracellular calcium concentration) of 0.3 and 2 μM edelfosine and JPH1701 on PAF receptor normalized to the response induced by 100 nM C16-PAF. […] FIG. 11C-D) Dose responses curves showing the effect of JPH1701 on PKCs (FIG. 11C, PKCs are: alpha, Beta 1, Beta 2, Gamma, Delta, Epsilon, Zeta, Eta, Theta, Iota) and PhosphoLipase C (PLC) activities (FIG. 11D).

MDA-MB-435s (SK3+) = assay: Cell migration / 2D motility assay (transwell inserts, wound healing); type: cell-based, human; settings: for Effect on cell migration: summary of table 2
Text: Alternatively, the cell migration inhibitory activity of a compound of formula (I) may be assessed by performing a Wound Healing assay that is disclosed in the examples herein and for which the one skilled in the art may also refer to the article of Rodriguez et al. (2005, Methods Biol Mol, Vol. 294: 23-29). The wound-healing assay is simple, inexpensive, and one of the earliest developed methods to study directional cell migration in vitro. This method mimics cell migration during wound healing in vivo. The basic steps involve creating a “wound” in a cell monolayer, capturing the images at the beginning and at regular intervals during cell migration to close the wound, and comparing the images to quantify the migration rate of the cells. It is particularly suitable for studies on the effects of cell-matrix and cell-cell interactions on cell migration. Cells are seeded in culture dishes and grown until confluence in DMEM supplemented with 10% foetal calf serum. The monolayer is then scratched with a sterile yellow pipette tip. Then, migration of cells to the cleared area is inspected under a microscope. Pictures are taken directly at the time of scratching and after 24 h, so as to determine the ability of the tested cells to migrate.
Wound healing assay: Cells were seeded in culture dishes and grown until confluence in DMEM supplemented with 10% foetal calf serum. The monolayer was scratched with a sterile yellow pipette tip. The migration of cells to the cleared area was inspected under a microscope. Pictures were taken directly at the time of scratching and after 24 h.
At least three independent experiments were each performed in triplicate.

PhosphoLipase C (PLC) = assay: PhosphoLipase C activity; type: biochemical; settings: FIG. 11D
Experimental: as §1

PAF receptor [4] = target: T1, PAF receptor; assay: PAF receptor agonist response (increase of intracellular calcium); type: cell-based; settings: 0.3 and 2 μM, FIG. 11B
Experimental: as §1

SK3/KCa2.3 channel = SK3/KCa2.3 channel (Homo sapiens, UniProt Q9UGI6); assay: Whole-cell patch clamp on HEK293 cells expressing SK3; type: cell-based; set-up: expressed in transfected cells; host or cells: HEK293, lentiviral transduction, clonal selection; settings: for Conductance decreasing / Inhibition of I at 0 mV: HEK 293 LvSK3 cells; for Inhibition of I at 0 mV: 10 μM stated for JPH1701; for Effect on SK3 activity: less effect than JPH1701
Experimental: The percentages of inhibition represent the ratio (SK3 current amplitude and chord conductance (in the presence of 10 μM JPH1701)/SK3 current amplitude in control experiments). Black bars show current at 0 mV and grey bars indicate the chord conductance. […] Columns, mean, bars, SEM, (5 cells for racemic mix and 4 cells for + and − forms).
MDA-MB-435s and HEK293 cells were transduced with lentiviral vector at multiplicities of infection (MOI) of 1 to 3 in the presence of polybrene (4 μg/ml, Sigma).
Experiments were performed with cells seeded into 35-mm Petri dishes at 3000 cells per cm2. All experiments were performed using the conventional whole-cell recording configuration of the patch-clamp technique as previously described. PCa solution was 7 and 6.4 respectively for MDA-MB-435s and HEK293-SK3/KCa2.3 cells.
Briefly, experiments were conducted using Axopatch 200B patch-clamp amplifier (Axon Instrument) and data, digitized with 1322-A Digidata converter (Axon Instrument), were stored on a computer using Clampex of pClamp 9.2 software (Axon Instru-ment). The patch-clamp data was analyzed using both Clampfit 9.2 and Origin 7.0 software (Microcal Inc., Northampton, Mass., USA).
The pipette solution for the whole-cell recordings contained (in mM): K-glutamate 125, KCl 20, MgCl2 1, Mg-ATP 1, HEPES 10, and pH was adjusted to 7.2 with KOH and various concentrations of CaCl2 and EGTA were added to obtain calculated pCa=7 (0.37 mM CaCl2 and 10 mM EGTA) or pCa=6.4 (0.7 mM CaCl2 and 1 mM EGTA).
We next developed HEK cells expressing SK3/KCa2.3 channel in order to test directly analogues on SK3 activity measured using patch-clamp technique (FIG. 8). […] The JPH1701-induced inhibition of SK3 current was analysed at 0 mV and the entire time course of the experiment is depicted in FIG. 8A.
Current activity has been measured in HEK 293 LvSK3 and in MDA-MB-435s cells. The percentages represent the inhibition of current and of conductance by compounds on SK3 channel in HEK 293 cells.

MDA-MB-435s [5] = test system: MDA-MB-435s
[6] = Table 2, viability of MDA-MB-435s
[7] = Homo sapiens, MDA-MB-435S, Table 2, concentration 300 nM

T1 sequence (P25105 whole entry): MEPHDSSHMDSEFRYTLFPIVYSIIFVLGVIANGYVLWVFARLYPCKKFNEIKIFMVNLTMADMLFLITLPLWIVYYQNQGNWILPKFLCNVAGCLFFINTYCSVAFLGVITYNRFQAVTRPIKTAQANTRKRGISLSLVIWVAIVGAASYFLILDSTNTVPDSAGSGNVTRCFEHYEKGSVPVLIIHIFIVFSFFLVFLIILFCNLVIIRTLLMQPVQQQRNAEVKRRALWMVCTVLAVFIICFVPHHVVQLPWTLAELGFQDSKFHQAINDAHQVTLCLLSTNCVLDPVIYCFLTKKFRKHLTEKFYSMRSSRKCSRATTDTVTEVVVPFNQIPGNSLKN

Compound: CCCCCCCCCCCCCCCCCCOCC(COP(=O)([O-])OCC[N+](C)(C)C)OC (centres unmarked) [Edelfosine, reference compound]
- IC50 at 24 h ([1]; MDA-MB-435s cells (metastatic cancer cell line)): < 5 µM
- IC50 (MDA-MB-435s [2]; Homo sapiens, MDA-MB-435S): ~5 µM
- Toxicity (MDA-MB-435s [2]; [6]): Yes at 10 μM
- Interaction with C16-PAF binding site of PAF receptor (PAF receptor [3]): able to interact
- inhibition at 0.01 µM (MDA-MB-435s (SK3+); Homo sapiens, MDA-MB-435S, Table 2, concentration 10 nM): 60%
- inhibition at 0.3 µM (MDA-MB-435s (SK3+); [7]): 80%
- IC50 (PhosphoLipase C (PLC)): 2.5 µM
- PAF receptor agonist response (PAF receptor [4]): dose-dependently increase intracellular calcium

Compound: CCCCCCCCCCCCCCCCOCC(CO[C@@H]1O[C@H](COC(C)=O)[C@H](OC(C)=O)[C@H](OC(C)=O)[C@H]1OC(C)=O)OC (some centres unmarked) [JPH 1519]
- Migration (% of inhibition) (MDA-MB-435s (SK3+); Table 2, concentration 100 nM): 20%

Compound: CCCCCCCCCCCCCCCCOCC(COP(=O)(O)OCC[N+](C)(C)C)OC (centres unmarked) [JPH 1321]
- IC50 at 24 h ([1]; MDA-MB-435s cells): ~30 µM
- inhibition at 0.1 µM (MDA-MB-435s (SK3+); Homo sapiens, MDA-MB-435S, Table 1, concentration 100 nM, read-out: Cell Migration inhibition of MDA-MB-435s (SK3+), Inhibitory effect): 50%

- Conductance decreasing (SK3/KCa2.3 channel): 18.1 ± 2.3%
- Inhibition of I at 0 mV (SK3/KCa2.3 channel): 22.8 ± 2.1%
- Effect on SK3 activity (SK3/KCa2.3 channel): reduced SK3 activity
Compound: CCCCCCCCCCCCCCCCOC[C@H](CO[C@@H]1O[C@H](COC(C)=O)[C@@H](O[C@@H]2O[C@H](COC(C)=O)[C@H](OC(C)=O)[C@H](OC(C)=O)[C@H]2OC(C)=O)[C@H](OC(C)=O)[C@H]1OC(C)=O)OC [JPH1700]

- Conductance decreasing (SK3/KCa2.3 channel): 38.9 ± 5.5%
- Inhibition of I at 0 mV (SK3/KCa2.3 channel): 42.5 ± 8.2%
- Effect on SK3 activity (SK3/KCa2.3 channel): reduced SK3 activity
Compound: CCCCCCCCCCCCCCCCOCC(COP(=O)(O)OC1OC(COC(C)=O)C(OC2OC(COC(C)=O)C(OC(C)=O)C(OC(C)=O)C2OC(C)=O)C(OC(C)=O)C1OC(C)=O)OC.CCN(CC)CC (mixture of isomers) [CHS31]

Compound: CCCCCCCCCCCCCCCCOCC(CO)OC (centres unmarked) [JPH 1597]
- IC50 (MDA-MB-435s [2]; [6]): ~50 µM
- Migration (% of inhibition) (MDA-MB-435s (SK3+); Table 2, concentration 300 nM): No effect
- Effect on cell migration (MDA-MB-435s (SK3+)): decrease its inhibitory effect on cell migration
- Toxicity (MDA-MB-435s [5]): No at 10 μM

Compound: CCCCCCCCCCCCCCCCCCOP(=O)([O-])OCC[N+](C)(C)C [SK55]
- IC50 (MDA-MB-435s [2]; [6]): ~20 µM
- Effect on cell migration (MDA-MB-435s (SK3+)): ineffective on cell migration

Compound: CCCCCOCC(O)CO[C@@H]1O[C@H](CO)[C@@H](O)[C@H](O)[C@H]1O (some centres unmarked) [HCG451]
- Migration (% of inhibition) (MDA-MB-435s (SK3+); Table 2, concentration 300 nM): No effect
- Effect on cell migration (MDA-MB-435s (SK3+)): ineffective in cell migration
- Toxicity (MDA-MB-435s [5]): No until 100 μM

- Conductance decreasing (SK3/KCa2.3 channel): 34.1 ± 6.8%
- Inhibition of I at 0 mV (SK3/KCa2.3 channel): 44.0 ± 5.5%
Compound: CCCCCCCCCCCCCCCCOC[C@H](CO[C@@H]1O[C@H](CO[C@H]2O[C@H](COC(C)=O)[C@H](OC(C)=O)[C@H](OC(C)=O)[C@H]2OC(C)=O)[C@@H](OC(C)=O)[C@H](OC(C)=O)[C@H]1OC(C)=O)OC [JPH1874]

Compound: CCCCCCCCCCCCCCCCOP(=O)([O-])OCC[N+](C)(C)C [Miltefosine, reference compound]
- IC50 (MDA-MB-435s [2]; Homo sapiens, MDA-MB-435S): ~10 µM
- inhibition at 0.3 µM (MDA-MB-435s (SK3+); [7]): 20%
- Effect on cell migration (MDA-MB-435s (SK3+)): ineffective on cell migration

Compound: CCCCCCCCCCCCCCCCCCOCC(CO[C@@H]1O[C@H](CO)[C@@H](O[C@@H]2O[C@H](CO)[C@H](O)[C@H](O)[C@H]2O)[C@H](O)[C@H]1O)OC (some centres unmarked) [JPH 1731]
- Migration (% of inhibition) (MDA-MB-435s (SK3+); Table 2, concentration 100 nM): 30%

- Conductance decreasing (SK3/KCa2.3 channel): 46.1 ± 6.1%
- Inhibition of I at 0 mV (SK3/KCa2.3 channel): 44.7 ± 5.0%
Compound: CCCCCCCCCCCCCCCCOC[C@H](CO[C@@H]1O[C@H](COC(C)=O)[C@@H](O[C@H]2O[C@H](COC(C)=O)[C@@H](OC(C)=O)[C@H](OC(C)=O)[C@H]2OC(C)=O)[C@H](OC(C)=O)[C@H]1OC(C)=O)OC [JPH1880]

Compound: CCCCCOCC(O)CO[C@@H]1O[C@H](COC(C)=O)[C@@H](OC(C)=O)[C@H](OC(C)=O)[C@H]1OC(C)=O (some centres unmarked) [HCG450]
- IC50 (MDA-MB-435s [2]; [6]): ~30 µM
- Toxicity (MDA-MB-435s [5]): Yes at 10 μM

Compound: CCCCCCCCCCCCCCCCOCC(CO[C@@H]1O[C@H](CO)[C@H](O)[C@H](O)[C@H]1O)OC (some centres unmarked) [JPH 1524]
- IC50 (MDA-MB-435s [2]; [6]): ~10 µM
- Migration (% of inhibition) (MDA-MB-435s (SK3+); Table 2, concentration 300 nM): 20%
- Toxicity (MDA-MB-435s [5]): Yes at 10 μM

Compound: CCCCCCCCCCCCCCCCOCC(O)CO (centres unmarked) [GS 1361]
- Migration (% of inhibition) (MDA-MB-435s (SK3+); Table 2, concentration 300 nM): 40%
- Toxicity (MDA-MB-435s [5]): No at 10 μM

Compound: CCCCCCCCCCCCCCCCOCC(COP(=O)([O-])OCC[N+](C)(C)C)OC(C)=O (centres unmarked) [PAF, reference compound]
- Toxicity (MDA-MB-435s [2]; [6]): No until 100 μM
- Migration (% of inhibition) (MDA-MB-435s (SK3+); Table 2, concentration 300 nM): No effect
- Effect on cell migration (MDA-MB-435s (SK3+)): no effect on cell migration
